Experimental data as given in patent publication US20050233985A1, “Rsk inhibitors and therapeutic uses thereof” (priority 2003, published 2005).
Entries after “also recorded” stand apart in the source; their conditions may differ. Like-named read-outs stand apart in the source and are kept apart here.

Columns and labels:
[1] = test system: Ha-ras-transformed NIH/3T3 cells; test: Proliferation of transformed cells (CellTiter-Glo); assay type: cell-based
Method: (§1) Cells were treated with vehicle, 50 μM SL0101, or 50 μM PD 98059 (PD 98059 is a MEK-specific inhibitor). Proliferation was measured using Promega CellTiter-Glo™ Luminescent cell viability assay.
(§2) Cell Culture. For proliferation studies cells were seeded at 2500 to 5000 cells per well in 96 well tissue culture plates in the appropriate medium as described by American Type Culture Collection. After 24 hr, the medium was replaced with medium containing compound or vehicle as indicated. Cell viability was measured at indicated time points using CellTiter-Glo™ assay reagent (Promega) according to manufacturer's protocol. For in vivo inhibition studies, cells were seeded at 2.5×10^5 cells/well in 12 well cell culture clusters. After 24 hr, the cells were serum starved for 24 hr then incubated with compound or vehicle for 3 hr prior to a 30 min PDB stimulation. Cells were lysed as previously described (J. Biol. Chem. 273, 13317-13323 (1998)). The lysates were normalized for total protein, electrophoresed and immunoblotted. For cell imaging, Ha-Ras-transformed NIH/3T3 cells were seeded on LABTEK II chamber slides (Nalge) at a density of 1×10^4 cells/well. After 24 hr, fresh medium was added the indicated compounds or vehicle. Images were taken 48 hr after treatment at a magnification of 20×.

MCF-7 cells = assay type: cell-based
Method: (§3) Cell viability was measured at indicated time points. Proliferation assays were conducted using CellTiter-Glo Luminescent Cell Viability Assay (Promega), performed 44 hrs after treatment for FIGS. 8A &B and at indicated points for FIG. 8C. The data are expressed relative to time 0.
as §2

MCF-10A cells = test: Proliferation of MCF-10A cells (CellTiter-Glo); assay type: cell-based
Method: as §3, §2

Rsk2 [2] = target: T1, Rsk2 (Homo sapiens, UniProt P51812, Y707A); test: Rsk kinase ELISA with immobilized substrate and phosphospecific antibodies; assay type: biochemical
T1 construct: His; made in house; host or cells: Sf9 (baculovirus, Bac-to-Bac)

[3] = target: T2, Focal Adhesion Kinase (FAK) (Homo sapiens, UniProt Q05397); test: FAK tyrosine kinase ELISA; assay type: biochemical; details: purified compounds
T2 construct: the catalytic domain of the tyrosine kinase, Focal Adhesion Kinase (FAK); His; made in house; host or cells: Sf9 (baculovirus, Bac-to-Bac)

protein kinase A (PKA) = target: T3, protein kinase A (PKA) (Homo sapiens, UniProt P17612); test: PKA kinase ELISA; assay type: biochemical; details: purified compounds
T3 construct: made in house; host or cells: bacteria
Method: (§4) Kinase Assays. Glutathione-S-transferase (GST)-fusion protein (1 g) containing the sequence -[…] (SEQ ID NO: 3, for serine/threonine kinase assays) or -[…] (SEQ ID NO: 4, for tyrosine kinase assays) was adsorbed in the wells of LumiNunc 96-well polystyrene plates (MaxiSorp surface treatment). The wells were blocked with sterile 3% tryptone in phosphate buffered saline and stored at 4° C. for up to 6 months. Kinase (5 nM) in 70 μl of kinase buffer (5 mM -glycerophosphate pH 7.4, 25 mM HEPES pH 7.4, 1.5 mM DTT, 30 mM MgCl2, 0.15 M NaCl) was dispensed into each well. Compound at indicated concentrations or vehicle was added, and reactions were initiated by the addition of 30 μl of ATP for a final ATP concentration of 10 μM unless indicated otherwise. Reactions were terminated after 10 to 45 min by addition of 75 μl of 500 mM EDTA, pH 7.5. All assays measured the initial velocity of reaction. After extensive washing of wells, polyclonal phosphospecific antibody developed against the phosphopeptide and HRP-conjugated anti-rabbit antibody (211-035-109, Jackson ImmunoResearch Laboratories) were used to detect serine phosphorylation of the substrate. HRP-conjugated anti-phospho-tyrosine antibody (RC20, BD Transduction Laboratories) was used for phospho-tyrosine detection. His-tagged active Rsk and FAK were expressed in Sf9 cells and purified using NiNTA resin (Qiagen). Baculovirus was prepared using the Bac-to-Bac® baculovirus expression system (Invitrogen). PKA was bacterially expressed and activated as described (Anal. Biochem. 245, 115-122 (1997)). Active Msk1 and p70 S6 kinase was purchased from Upstate Biotechnology. Immunoprecipitation and kinase assays were performed as previously described (Poteet-Smith et al., J. Biol. Chem, 274, 22135-22138 (1999) using the immobilized GST-fusion proteins and ELISAs as above.

p70 S6K = target: T4, p70 S6K (Homo sapiens, UniProt P23443); test: p70 S6K kinase ELISA; assay type: biochemical; details: purified compounds
T4 construct: purchased Upstate Biotechnology
Method: as §4

Msk1 = target: T5, Msk1 (Homo sapiens, UniProt O75582); test: Msk1 kinase ELISA; assay type: biochemical; details: purified compounds
T5 construct: purchased Upstate Biotechnology
Method: as §4

Rsk2 [4] = target: Rsk2 (Homo sapiens, UniProt P51812); test: Kinase assay of immunoprecipitated HA-tagged Rsk2 from EGF-stimulated BHK21 cells; assay type: biochemical; details: 2 μM
Rsk2(1-389) = target: T6, Rsk2(1-389) (Homo sapiens, UniProt P51812); test: Kinase assay of immunoprecipitated HA-tagged Rsk2 amino-terminal kinase domain; assay type: biochemical; details: 2 μM
T6 construct: a truncation mutant of Rsk2 containing only the NTKD (Rsk2(1-389)); expressed in transfected cells; host or cells: BHK21, EGF-stimulated; anti-HA immunoprecipitate

Rsk1 = target: T7, Rsk1 (Homo sapiens, UniProt Q15418); test: Kinase assay of immunoprecipitated HA-tagged Rsk1; assay type: biochemical; details: 2 μM
T7 construct: expressed in transfected cells; host or cells: BHK21, transiently transfected, EGF-stimulated; anti-HA immunoprecipitate
Text: (§5) To determine whether the unique adenosine-interacting loop is sufficient for SL0101-1 specificity, the isozyme specificity of SL0101-1 was examined. The primary structure of the NTKDs of the Rsk isoforms 1-3 are highly related, sharing 87% identity and each contain the unique adenosine-interacting loop. HA-tagged proteins were immunoprecipitated from the lysates of EGF-stimulated BHK21 cells transiently transfected with the indicated HA-tagged constructs (Rsk1, Rsk2 and Rsk3). Assays were performed as described immediately above.
(§6) Kinase Assays. Glutathione-S-transferase (GST)-fusion protein (1 g) containing the sequence -[…] (SEQ ID NO: 3, for serine/threonine kinase assays) or -[…] (SEQ ID NO: 4, for tyrosine kinase assays) was adsorbed in the wells of LumiNunc 96-well polystyrene plates (MaxiSorp surface treatment). The wells were blocked with sterile 3% tryptone in phosphate buffered saline and stored at 4° C. for up to 6 months. Kinase (5 nM) in 70 μl of kinase buffer (5 mM -glycerophosphate pH 7.4, 25 mM HEPES pH 7.4, 1.5 mM DTT, 30 mM MgCl2, 0.15 M NaCl) was dispensed into each well. Compound at indicated concentrations or vehicle was added, and reactions were initiated by the addition of 30 μl of ATP for a final ATP concentration of 10 μM unless indicated otherwise. […] All assays measured the initial velocity of reaction. […]

Rsk3 = target: T8, Rsk3 (Homo sapiens, UniProt Q15349); test: Kinase assay of immunoprecipitated HA-tagged Rsk3; assay type: biochemical; details: 2 μM
T8 construct: expressed in transfected cells; host or cells: BHK21, transiently transfected, EGF-stimulated; anti-HA immunoprecipitate
Text: as §5, §6

parental NIH/3T3 cells = test: Proliferation of parental cells (CellTiter-Glo); assay type: cell-based; details: 50 μM, compared to vehicle
Method: as §1, §2

LNCaP cells = test: Proliferation of LNCaP cells (CellTiter-Glo); assay type: cell-based, human; details: 50 μM, 44 hrs after treatment
Method: as §3, §2

[5] = test system: p140 phosphorylation in MCF-7 cells; test: PDB-induced p140 phosphorylation in MCF-7 cells (immunoblot); assay type: cell-based, human; details: 3 hr pre-incubation, 500 nM PDB 30 min
Method: (§7) Cells were treated with 500 nM PDB for 30 min prior to lysis. Protein concentration of lysates was measured and lysates were electrophoresed, transferred and immunoblotted.
as §2

[6] = test system: p140 phosphorylation in MCF-10A cells; test: PDB-induced p140 phosphorylation in MCF-10A cells (immunoblot); assay type: cell-based; details: 3 hr pre-incubation, 500 nM PDB 30 min
Method: as §7, §2

MAPK, MEK, Raf and PKC = test: Upstream MAPK pathway kinases in PDB-stimulated cells (Rsk mobility shift, anti-active MAPK); assay type: cell-based, human
Method: Specific inhibition of Rsk in situ was determined by incubation of MCF-7 cells in the presence or absence of increasing concentrations of extract fraction enriched in SL0101 prior to stimulation of the MAPK pathway with phorbol dibutyrate (PDB). […] Thus, SL0101 is a Rsk-specific inhibitor in situ as well as in vitro and can be used as an investigative tool for defining the function of Rsk in situ.
as §7, §2

[7] = test system: p140 phosphorylation in LNCaP cells; test: p140 phosphorylation in LNCaP line (anti-RPM antibody); assay type: cell-based, human; details: efficacy paralleled inhibition of LNCaP proliferation
Method: The ability of SL1011-1 to inhibit the proliferation of the androgen-dependent human prostate line, LNCaP was tested. […] To investigate the Rsk signal transduction pathway in the LNCaP line, a phosphospecific antibody to a Rsk phosphorylation motif (RPM) was produced. Only a few downstream effectors of Rsk have been identified and therefore, applicants anticipated that an anti-RPM antibody would be a very effective tool for identifying novel Rsk substrates in vivo. An anti-RPM antibody has previously been reported that recognizes the Rsk substrate, p140, a protein of unknown function. […] All lysates were normalized to each other using an anti-Ran antibody. Ran is used for normalization based on the observations that it is a general housekeeping protein, the activity or expression levels of which are not known to vary in any disease state.

[8] = in vitro, increasing concentrations of compound, read-out: IC50 for Rsk catalytic activity

T2 sequence (Q05397 422-680 limits assumed, species assumed): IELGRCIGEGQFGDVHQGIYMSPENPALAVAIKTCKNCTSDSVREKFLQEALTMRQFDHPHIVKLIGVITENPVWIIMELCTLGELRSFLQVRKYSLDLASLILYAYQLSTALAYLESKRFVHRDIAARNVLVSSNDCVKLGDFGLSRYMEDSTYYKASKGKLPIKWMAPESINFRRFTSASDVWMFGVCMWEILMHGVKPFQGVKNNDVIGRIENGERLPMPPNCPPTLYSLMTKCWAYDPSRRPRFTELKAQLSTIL
T4 sequence (P23443 24-525): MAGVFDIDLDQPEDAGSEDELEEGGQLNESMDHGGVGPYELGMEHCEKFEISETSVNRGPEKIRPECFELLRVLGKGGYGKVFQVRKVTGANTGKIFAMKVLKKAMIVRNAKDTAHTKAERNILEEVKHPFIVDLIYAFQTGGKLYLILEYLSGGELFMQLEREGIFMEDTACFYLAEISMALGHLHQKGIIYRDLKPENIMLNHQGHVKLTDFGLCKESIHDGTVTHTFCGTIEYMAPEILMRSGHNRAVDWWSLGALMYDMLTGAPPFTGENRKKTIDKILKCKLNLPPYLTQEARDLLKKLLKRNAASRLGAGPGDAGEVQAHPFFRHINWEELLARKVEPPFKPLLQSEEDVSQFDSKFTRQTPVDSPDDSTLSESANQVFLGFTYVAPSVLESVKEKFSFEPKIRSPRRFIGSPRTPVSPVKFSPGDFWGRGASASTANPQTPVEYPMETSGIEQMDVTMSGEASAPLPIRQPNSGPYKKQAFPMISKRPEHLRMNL
T5 sequence (O75582 whole entry, species assumed): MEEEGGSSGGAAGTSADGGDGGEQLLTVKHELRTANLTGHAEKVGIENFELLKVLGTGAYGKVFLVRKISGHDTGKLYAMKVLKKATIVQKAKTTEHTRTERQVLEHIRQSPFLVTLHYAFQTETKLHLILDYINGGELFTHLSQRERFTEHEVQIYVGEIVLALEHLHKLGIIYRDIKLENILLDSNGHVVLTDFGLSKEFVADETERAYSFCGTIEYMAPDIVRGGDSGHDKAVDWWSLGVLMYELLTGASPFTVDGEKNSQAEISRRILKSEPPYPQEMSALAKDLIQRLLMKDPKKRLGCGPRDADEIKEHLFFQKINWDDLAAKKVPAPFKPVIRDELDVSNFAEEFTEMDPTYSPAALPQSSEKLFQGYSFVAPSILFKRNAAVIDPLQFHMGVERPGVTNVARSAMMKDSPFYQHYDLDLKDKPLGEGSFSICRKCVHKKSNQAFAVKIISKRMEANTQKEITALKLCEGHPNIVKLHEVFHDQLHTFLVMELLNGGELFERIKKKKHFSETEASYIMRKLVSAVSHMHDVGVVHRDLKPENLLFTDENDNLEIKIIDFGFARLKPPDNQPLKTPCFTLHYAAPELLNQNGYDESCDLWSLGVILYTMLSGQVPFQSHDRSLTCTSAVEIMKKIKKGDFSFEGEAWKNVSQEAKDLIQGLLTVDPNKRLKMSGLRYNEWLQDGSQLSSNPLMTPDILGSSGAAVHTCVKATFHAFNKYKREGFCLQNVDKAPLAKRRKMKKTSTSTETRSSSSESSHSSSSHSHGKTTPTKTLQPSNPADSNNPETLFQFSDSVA
T1 sequence (P51812 whole entry Y707A): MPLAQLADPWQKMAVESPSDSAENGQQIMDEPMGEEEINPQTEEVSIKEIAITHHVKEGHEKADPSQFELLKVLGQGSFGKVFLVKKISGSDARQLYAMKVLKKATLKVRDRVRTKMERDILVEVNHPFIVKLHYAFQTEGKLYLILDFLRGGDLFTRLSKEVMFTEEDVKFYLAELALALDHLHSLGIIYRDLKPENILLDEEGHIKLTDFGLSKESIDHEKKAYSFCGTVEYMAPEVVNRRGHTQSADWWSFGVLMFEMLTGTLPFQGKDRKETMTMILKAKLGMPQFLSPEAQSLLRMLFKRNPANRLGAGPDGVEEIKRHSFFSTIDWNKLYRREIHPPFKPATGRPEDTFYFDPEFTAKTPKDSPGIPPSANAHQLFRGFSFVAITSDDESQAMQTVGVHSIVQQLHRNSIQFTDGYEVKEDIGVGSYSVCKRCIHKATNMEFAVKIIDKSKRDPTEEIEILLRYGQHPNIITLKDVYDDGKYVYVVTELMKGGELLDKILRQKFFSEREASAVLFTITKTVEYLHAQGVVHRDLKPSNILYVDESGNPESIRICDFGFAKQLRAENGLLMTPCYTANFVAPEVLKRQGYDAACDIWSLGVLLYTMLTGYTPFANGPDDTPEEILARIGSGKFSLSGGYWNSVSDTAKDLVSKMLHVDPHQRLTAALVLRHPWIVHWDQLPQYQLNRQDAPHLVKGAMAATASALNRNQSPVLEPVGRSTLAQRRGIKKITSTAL
T6 sequence (P51812 1-389): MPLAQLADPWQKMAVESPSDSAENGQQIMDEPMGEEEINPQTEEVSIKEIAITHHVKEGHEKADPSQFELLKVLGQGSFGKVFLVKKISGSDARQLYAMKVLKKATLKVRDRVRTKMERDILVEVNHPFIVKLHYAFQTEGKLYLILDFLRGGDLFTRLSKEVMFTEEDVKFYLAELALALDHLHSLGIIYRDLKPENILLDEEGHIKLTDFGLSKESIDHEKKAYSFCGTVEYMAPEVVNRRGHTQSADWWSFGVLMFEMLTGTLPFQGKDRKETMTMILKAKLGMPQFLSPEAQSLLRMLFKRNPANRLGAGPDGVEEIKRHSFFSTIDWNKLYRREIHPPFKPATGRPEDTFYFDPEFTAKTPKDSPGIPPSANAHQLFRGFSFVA
T8 sequence (Q15349 whole entry): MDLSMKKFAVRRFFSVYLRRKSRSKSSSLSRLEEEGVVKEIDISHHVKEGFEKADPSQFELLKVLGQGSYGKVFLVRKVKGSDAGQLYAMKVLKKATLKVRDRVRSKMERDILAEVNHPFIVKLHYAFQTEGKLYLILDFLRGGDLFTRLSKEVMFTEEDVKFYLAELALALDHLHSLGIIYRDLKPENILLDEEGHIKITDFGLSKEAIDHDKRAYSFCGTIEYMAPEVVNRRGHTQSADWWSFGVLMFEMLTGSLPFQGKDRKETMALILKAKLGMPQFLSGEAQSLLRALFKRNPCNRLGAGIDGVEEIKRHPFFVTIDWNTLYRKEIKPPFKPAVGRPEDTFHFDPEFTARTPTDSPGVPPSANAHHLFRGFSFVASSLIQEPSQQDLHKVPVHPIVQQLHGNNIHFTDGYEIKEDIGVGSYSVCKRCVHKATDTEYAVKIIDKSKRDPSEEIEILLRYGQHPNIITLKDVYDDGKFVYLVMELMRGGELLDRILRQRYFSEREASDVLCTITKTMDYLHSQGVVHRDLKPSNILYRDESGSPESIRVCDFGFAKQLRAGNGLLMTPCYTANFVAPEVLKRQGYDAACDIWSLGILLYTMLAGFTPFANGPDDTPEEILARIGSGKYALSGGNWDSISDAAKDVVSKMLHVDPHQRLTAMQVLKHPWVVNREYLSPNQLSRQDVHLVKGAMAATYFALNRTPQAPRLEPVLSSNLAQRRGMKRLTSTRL
Sequence of Rsk2 (Homo sapiens, UniProt P51812) (P51812 whole entry, the tested form may be a part): as the sequence (P51812 whole entry Y707A) above, with A707Y counted along it
T7 sequence (Q15418 whole entry): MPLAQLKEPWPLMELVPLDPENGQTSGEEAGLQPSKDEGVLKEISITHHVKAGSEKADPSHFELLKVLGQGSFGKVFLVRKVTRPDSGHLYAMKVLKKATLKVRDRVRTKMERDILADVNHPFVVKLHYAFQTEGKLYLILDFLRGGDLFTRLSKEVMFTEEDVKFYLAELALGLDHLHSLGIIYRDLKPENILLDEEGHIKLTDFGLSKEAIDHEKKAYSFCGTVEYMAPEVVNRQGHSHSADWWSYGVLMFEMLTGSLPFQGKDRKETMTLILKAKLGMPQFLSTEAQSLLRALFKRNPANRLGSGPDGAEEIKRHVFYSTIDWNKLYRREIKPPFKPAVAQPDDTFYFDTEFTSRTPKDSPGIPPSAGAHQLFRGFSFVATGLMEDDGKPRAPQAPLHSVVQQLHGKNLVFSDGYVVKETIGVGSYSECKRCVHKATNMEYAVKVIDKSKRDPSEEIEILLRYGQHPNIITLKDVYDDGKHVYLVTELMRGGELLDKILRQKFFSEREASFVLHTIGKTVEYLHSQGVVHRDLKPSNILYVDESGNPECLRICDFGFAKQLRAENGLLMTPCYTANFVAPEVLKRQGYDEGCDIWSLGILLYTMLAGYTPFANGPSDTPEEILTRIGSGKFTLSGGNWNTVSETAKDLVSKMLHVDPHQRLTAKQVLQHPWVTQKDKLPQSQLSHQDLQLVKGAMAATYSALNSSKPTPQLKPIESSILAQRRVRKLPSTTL

COc1cccc(-c2cc(=O)c3ccccc3o2)c1N [PD 98059, reference compound]
influence on the proliferation rate ([1]; 50 μM PD 98059, Ha-ras-transformed or parental NIH/3T3 cells): observed only when cells were incubated in the presence of low concentrations of fetal calf serum

Cn1cc(C2=C(c3cn(CCCSC(=N)N)c4ccccc34)C(=O)NC2=O)c2ccccc21 [Ro 318220, reference compound]
proliferation of MCF-7 cells (MCF-7 cells; 500 nM): attenuated proliferation
proliferation of MCF-10A cells (MCF-10A cells; 500 nM): attenuated proliferation

CC(=O)OC1C(C)OC(Oc2c(-c3ccc(O)cc3)oc3cc(O)cc(O)c3c2=O)C(O)C1OC(C)=O [SL0101-1, kaempferol 3-α-L-(3″,4″-diacetyl) rhamnopyranoside]
specificity for Rsk compared to p70 S6K and Msk1 (Rsk2 [2]; 5 μM inhibitor, 5 nM purified kinases, 30 mins, 10 μM ATP): specific for inhibition of Rsk activity; also recorded: specifically inhibits
mechanism of Rsk inhibition (Rsk2 [2]; with respect to ATP): competitive with respect to ATP
inhibition of FAK [3]: do not inhibit
inhibition of Protein Kinase A (protein kinase A (PKA)): do not inhibit
inhibition of p70 S6 kinase (p70 S6K): do not inhibit
inhibition of MSK (Msk1): do not inhibit
Rsk2 activity (Rsk2 [4]): potently reduced
inhibition of isolated Rsk2 NTKD (Rsk2(1-389)): potently inhibited; also recorded: inhibits activity
Rsk1 activity (Rsk1): potently reduced
Rsk3 activity (Rsk3): only partially inhibited
reversibility of inhibition of cell proliferation (washout) ([1]; 50 μM for 48 hr, then medium replaced, viability 48 hr later): resulted in growth of the transformed cells; also recorded: reversible
proliferation of Ha-ras-transformed NIH/3T3 cells ([1]; 50 μM, 48 hour time course, 10% fetal calf serum): decreased the growth rate; also recorded: halts proliferation; also recorded: inhibits; also recorded: inhibited the proliferation
toxicity to intact cells ([1]; Ha-Ras transformed and parental NIH/3T3 cells): not toxic
morphology of transformed cells ([1]; images 48 hr after treatment): striking morphology changes
proliferation of parental NIH/3T3 cells (parental NIH/3T3 cells): little effect; also recorded: little influence; also recorded: not the parental cells
cell death of MCF-7 cells (MCF-7 cells; 50 μM): did not cause cell death
MCF-7 cell viability compared to vehicle control (MCF-7 cells; 50 μM in serum-free medium (serum deprivation)): significantly reduced cell viability
proliferation of MCF-7 cells (MCF-7 cells; 50 μM, 44 hrs after treatment): inhibited proliferation; also recorded: inhibits the proliferation
growth of MCF-10A cells (MCF-10A cells; 50 μM, 44 hrs after treatment): no effect; also recorded: without preventing the proliferation
proliferation of LNCaP cells (LNCaP cells): completely inhibit
PDB-induced p140 phosphorylation ([5]; 100 μM): abrogates
PDB-induced p140 phosphorylation in MCF-10A cells [6]: prevented
activation of MAPK (anti-active MAPK antibody) (MAPK, MEK, Raf and PKC): does not effect
inhibition of upstream kinases PKC, Raf, MEK, MAPK in cells (MAPK, MEK, Raf and PKC): does not inhibit
phosphorylation of Rsk by MAPK (reduced electrophoretic mobility) (MAPK, MEK, Raf and PKC): does not effect
phosphorylation of p140 [7]: decrease the phosphorylation

CC(=O)OC1C(C)OC(Oc2c(-c3ccc(O)cc3)oc3cc(O)cc(O)c3c2=O)C(OC(C)=O)C1O [SL0101-2, kaempferol 3-α-L-(2″,4″-diacetyl) rhamnopyranoside]
IC50 (Rsk2 [2]; [8]): 580 nM
inhibition of FAK [3]: do not inhibit
inhibition of Protein Kinase A (protein kinase A (PKA)): do not inhibit
inhibition of p70 S6 kinase (p70 S6K): do not inhibit
inhibition of MSK (Msk1): do not inhibit

CC(=O)OC1C(C)OC(Oc2c(-c3ccc(O)cc3)oc3cc(O)cc(O)c3c2=O)C(O)C1O [SL0101-3, kaempferol-3-α-L-(4″-acetyl) rhamnopyranoside]
IC50 (Rsk2 [2]; [8]): 190 nM
inhibition of FAK [3]: do not inhibit
inhibition of Protein Kinase A (protein kinase A (PKA)): do not inhibit
inhibition of p70 S6 kinase (p70 S6K): do not inhibit
inhibition of MSK (Msk1): do not inhibit

N#CC(=C(/N)Sc1ccccc1N)/C(C#N)=C(\N)Sc1ccccc1N [U0126, reference compound]
proliferation of MCF-7 cells (MCF-7 cells; 50 μM, 44 hrs after treatment): halted proliferation
growth of MCF-10A cells (MCF-10A cells; 50 μM, 44 hrs after treatment): halted proliferation
PDB-induced p140 phosphorylation ([5]; 50 μM): abrogates

O=c1c(O)c(-c2ccc(O)cc2)oc2cc(O)cc(O)c12 [kaempferol, reference compound]
IC50 (Rsk2 [2]; in vitro kinase assay with immobilized substrate, read-out: IC50 for Rsk): 15000 nM
growth of MCF-7 cells (MCF-7 cells; concentration not given, same extent as MCF-10A): slows growth
growth of MCF-10A cells (MCF-10A cells; concentration not given, same extent as MCF-7): slows growth
